Experimental data as given in the NIST ThermoML archive (doi:10.1016/j.fluid.2007.12.005).
Where “and” joins values, the source holds several entries; their conditions need not be identical. Equal values may be shown once. Numbers after ± are expanded uncertainties.

Details: 313.15 K; Liquid; Closed cell (Static) method

SMILES: CCOC(C)(C)C [2-ethoxy-2-methylpropane]
- vapor or sublimation pressure: 31.64 ± 0.12 kPa and 31.65 ± 0.12 kPa

SMILES: CCCCCCC [heptane]
- vapor or sublimation pressure: 12.31 ± 0.056 kPa and 12.32 ± 0.056 kPa

SMILES: C=CCCCC [hex-1-ene]
- vapor or sublimation pressure: 44.96 ± 0.24 kPa and 44.95 ± 0.24 kPa
